Legend:
SK-N-BE(2)-C cells [1] = assay: Colony formation assay in neuroblastoma cells; type: cell-based, human; settings: 5 and 10 μM, treatment 96 h, then 6 days without treatment
Description: In order to measure the functional consequence of HDAC8 inhibition, two different cell lines were used: SK-N-BE(2)-C cells, which display MYCN amplification and non-functional p53; and IMR-32 cells having p53 wild type, which both respond with growth arrest and signs of neuronal differentiation upon knockdown or selective inhibition of HDAC8. Growth arrest was determined by colony formation and viability assays. Cells were treated with 5 and 10 μM of each of the CRBN_ based HDAC8 PROTACs having a triazole linker (CRBN_1d, CRBN_1e, CRBN_1f) for 96 h, followed by culturing for another 6 days without treatment (Figure 5A). This assesses whether the treatment impairs the clonogenic growth capacity of tumor cells, indicating effectiveness of compounds on the survival and proliferation of tumor cells.
In six-well plates, 500 cells were seeded and treated as indicated. Viable colonies were stained after a minimum of 10 days with crystal violet. For quantification, the mean intensity of each well of the 8-bit binary picture was measured with ImageJ software (U. S. National Institutes of Health, Bethesda, MD, USA; http://imagej.nih.gov/ij/ (accessed on 1 March 2022)).
Figure 5 (A) Neuroblastoma SK-N-BE(2)-C cells; Colony Assay, 10 days (compound treatment within first 96 h). Stained with crystal violet and quantified with ImageJ. (B,C) Trypan Blue assay for detection of dead cells. Neuroblastoma IMR-32 cells were either treated with 5 µM (B) or 10 µM (C). (D,E) Cell proliferation assessed via counting of viable cells. IMR-32 cells were either treated with 5 µM (D) or 10 µM (E) PROTACs. HDAC8i PCI-34501 served as a positive control, untreated (MEM) and solvent (DMSO) treated cells served as negative controls.

[2] = Non-enzymatic stability in assay medium (HPLC); settings: 37 °C, 10 µM, pH7.4
Description: Non-enzymatic stability of selected final compounds was determined using 10 µM concentration of the tested PROTACs in one of the following assay media; Dulbecco’s modified Eagle medium (DMEM) (50%)/dimethylsulfoxid (10%)/acetonitrile (40%) or DMEM (50%)/dimethylsulfoxid (10%)/methanol (40%) mixture at pH7.4. The formed solution mixtures were incubated for 0, 6, 12, and 24 h at 37 °C. Analyte decomposition was monitored by HPLC using XTerra RP18 column (3.5 mm, 3.9 mm × 100 mm) from the manufacturer Waters (Milford, MA, USA) and two LC-10AD pumps, a SPD-M10A VP PDA detector, and a SIL-HT autosampler, all from the manufacturer Shimadzu (Kyoto, Japan).

SK-N-BE(2)-C cells [3] = assay: Cell differentiation assay (neurite-like outgrowths, crystal violet); type: cell-based, human; settings: combined with ATRA, 6–10 days
Source text: As HDAC8 inhibition is known to induce signs of neuronal differentiation, such as neurite-like outgrowths in neuroblastoma cells), we treated SK-N-BE(2)-C cells with CRBN_1b, CRBN_1e, HyT_1m, and PCI-34051 for 6–10 days then stained the cells with crystal violet to visualize neurite-like outgrowths. For comparison, we treated the cells with the known neuronal differentiation inducer retinoic acid (ATRA) which is a known drug, that is applied for neuroblastoma treatment under some circumstances.
Adherent cells plated on 6-well plates were treated as indicated. For staining, cells were rinsed once with (PBS) and incubated with crystal violet staining solution (1% (w/v) in 70% EtOH) for 1 min. Subsequently, the staining solution was removed and cells were rinsed two to three times with autoclaved purified water and allowed to dry. All-trans retinoic acid (ATRA, Sigma-Aldrich, stock concentration 10 mM) was dissolved in ethanol (EtOH, Sigma-Aldrich, St. Louis, USA).
Figure 7 (A) SK-N-BE(2)-C cells, treated for 10 days. Scale bar: 500 µm. Stained with crystal violet. (B) SK-N-BE(2)-C cells, treated for 6 days. Stained with crystal violet.

[4] = Cytotoxicity on HEK293 cells (Alamar Blue assay); settings: human
Description: The cells were seeded out at 1.5 × 10^3 cells per well in a 96-well cell culture plate (TPP, Techno Plastic Products AG, Trasadingen, Switzerland). […] After 24 h, Alamar Blue reagent (Invitrogen, Carlsbad, CA, USA) was added according to the manufacturer’s instructions and incubated again for 21 h before the samples were analyzed.

HDAC8 = settings: cited from earlier work

## COc1ccc(C(=O)NO)cc1NCc1ccc(OCc2cn(CCCCCC(=O)Nc3cccc4c3C(=O)N(C3CCC(=O)NC3=O)C4=O)nn2)cc1 (stereo not drawn) [CRBN_1e]
SK-N-BE(2)-C cells [1]
  Effect on colony formation: strongest effect on colony formation
[2]; 6 h
  Non-enzymatic stability, compound remaining: 91.6%
[2]; 24 h
  Non-enzymatic stability, compound remaining: 65.5%
SK-N-BE(2)-C cells [3]
  Differentiation phenotype (neurite-like outgrowths): substantially enhanced the differentiation phenotype

## COc1cccc2c1C(=O)c1c(O)c3c(c(O)c1C2=O)C[C@@](O)(C(C)=O)C[C@@H]3O[C@H]1C[C@H](N)[C@H](O)[C@H](C)O1 [Daunorubicin]
[4]
  IC50 at 48 h: 2100 nM

## N[C@H](Cc1cccc(Cl)c1)C(=O)N1CCN(C(=O)c2cc(F)ccc2F)CC1 [II]
HDAC8
  IC50: 200 nM
